Experiment [1] has as its system rAmpC CNE-2 from C. neteri ATCC 33855. Format: biochemical. Particulars: for Km: Ki or Km,apparent, 200 µM nitrocefin reporter, 500 nM rAmpC, all standard deviations ≤15%.
Experiment [2] shares this test system. Format: biochemical. To be noted: nitrocefin as substrate; 500 nM rAmpC, pH 7, 30 °C.

Like-named read-outs stand apart in the source and are kept apart here.

Consider `CC1=C(C(=O)O)N2C(=O)[C@@H](NC(=O)[C@H](N)c3ccccc3)[C@H]2SC1` [Cephalexin, cephalexin], for which the Km in experiment [1] worked out at 5 µM.
In the case of `C[C@@H](O)[C@H]1C(=O)N2C(C(=O)O)=C(SCCN=CN)C[C@H]12` [Imipenem, imipenem], the figures for the Michaelis constant (Km) in experiment [1] and in experiment [1] (listed as imipenem) were 2 µM and about 2 µM, respectively.
For the molecule `CO[C@@]1(NC(=O)Cc2cccs2)C(=O)N2C(C(=O)O)=C(COC(N)=O)CS[C@@H]21` [Cefoxitin, cefoxitin], the “Km, fold higher than for CDA-1 from C. davisae” value in experiment [1] (CNE-2 compared with CDA-1 (ref 13)) is on record as 100 fold. The Michaelis constant (Km) in experiment [1] is 54 µM.
Take `CO/N=C(\C(=O)N[C@@H]1C(=O)N2C(C(=O)O)=C(COC(N)=O)CS[C@H]12)c1ccco1` [Cefuroxime, cefuroxime]: the Km in experiment [1] is 4 µM.
The same measure, in the same setting: next, `Cc1nnc(SCC2=C(C(=O)O)N3C(=O)[C@@H](NC(=O)Cn4cnnn4)[C@H]3SC2)s1` [Cefazolin, cefazolin]: 100 µM.
The same measure, in the same setting: the value for `CC1(C)S[C@@H]2[C@H](NC(=O)Cc3ccccc3)C(=O)N2[C@H]1C(=O)O` [Penicillin, penicillin] was 11 µM.
With `O=C(Cc1cccs1)N[C@@H]1C(=O)N2C(C(=O)O)=C(/C=C/c3ccc([N+](=O)[O-])cc3[N+](=O)[O-])CS[C@H]12` [nitrocefin], in experiment [2], the Michaelis-Menten constant (Km) was 133 ± 11 µM and the turnover number (kcat) turned out to be 3.13 ± 0.27 s⁻¹.
For the molecule `CC1(C)S[C@@H]2[C@H](NC(=O)[C@H](N)c3ccccc3)C(=O)N2[C@H]1C(=O)O` [Ampicillin, ampicillin], the Km in experiment [1] was 12 µM.

For the origin of these results see publication PMC9952435, “Characterization of Two Novel AmpC Beta-Lactamases from the Emerging Opportunistic Pathogen, Cedecea neteri” (Antibiotics, 2023).
